pIC50: −log10 of the molar value. Several values for one entry are separate records, joined by “and”; a condition that tells them apart may be missing. Identical values can stand only once. Like-named read-outs stand apart in the source and are kept apart here.
Tests used:
[1] = test system: AsPC-1 (homozygous mutant KRAS G12D human pancreatic cell line); test: KRAS 3D-Cell Proliferation Assay, AsPC-1 (CellTiter-Glo 3D, 7 days); assay type: cell-based; settings: AsPC-1 3D culture, read-out: Prolif AsPC-1 3D ATP IC50
Method: (§1) Example 503: KRAS 3D-Cell Proliferation Assays. Cellular potencies of compounds are assessed by evaluating inhibition of proliferation in 3D cultures of homozygous mutant KRAS G12D human pancreatic cell lines (AsPC-1 and HPAC) as compared to a KRAS wild type human lung adenocarcinoma cell line (PC-9 and/or H1975). Cells are seeded into 384-well black round-bottom, ultra-low attachment assay plates in 50 uL cell growth medium (RPMI-1640 with 10% fetal bovine serum and 2 mM L-glutamine). After overnight incubation at 37° C. and 5% CO2, compounds solubilized in DMSO are added as dilution series to the wells in a total volume of 150 nL (0.3% DMSO final). The cells are incubated for 7 days at 37° C. and 5% CO2. Cell proliferation is quantitated by addition of 40 uL/well of CellTiter-GloO 3D (Promega), and the well contents are mixed 20× at high speed using liquid handling automation workstation (Bravo with 384-well head) and centrifuged at 1500 rpm for 2 minutes to eliminate bubbles. This reagent in combination with mechanical disruption releases the cellular ATP to promote activity in a luciferase-based enzyme/substrate chemiluminescent detection system. After a 30-minute incubation under ambient conditions with shaking and an additional 10 minutes without shaking, the luminescence is read on a plate reader (e.g. EnVision [PerkinElmer]). The results are normalized to percent inhibition based on the following control samples: DMSO (0% inhibition) and 1 uM staurosporine (100% inhibition). The normalized luminescence results are plotted against compound concentration, and the data are fit to a 4-parameter Hill equation to determine the IC50 values.

[2] = target: KRAS G12D (Homo sapiens (Human), UniProt P01116, G12D); test: KRAS G12D LoEnz Biochemical Assay, BODIPY-GDP Exchange TR-FRET (SOS1-mediated nucleotide exchange); settings: read-out: KRas (G12D) GDP HTRF IC50
KRAS G12D, sequence (P01116-2 other isoform, or with tags, fused parts or gaps G12D): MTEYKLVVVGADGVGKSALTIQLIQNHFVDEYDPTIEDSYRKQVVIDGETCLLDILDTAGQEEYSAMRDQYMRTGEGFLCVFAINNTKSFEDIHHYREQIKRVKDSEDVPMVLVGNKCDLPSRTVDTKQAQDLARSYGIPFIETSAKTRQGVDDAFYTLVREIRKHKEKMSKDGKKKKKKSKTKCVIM

[3] = target: T1, KRAS WT (Homo sapiens (Human), UniProt P01116); test: KRAS WT Biochemical Assay, BODIPY-GDP Exchange TR-FRET (Example 501; 3 nM KRAS WT, 3 nM SOS1, 60-minute incubation)
T1 sequence (P01116-2 other isoform, or with tags, fused parts or gaps): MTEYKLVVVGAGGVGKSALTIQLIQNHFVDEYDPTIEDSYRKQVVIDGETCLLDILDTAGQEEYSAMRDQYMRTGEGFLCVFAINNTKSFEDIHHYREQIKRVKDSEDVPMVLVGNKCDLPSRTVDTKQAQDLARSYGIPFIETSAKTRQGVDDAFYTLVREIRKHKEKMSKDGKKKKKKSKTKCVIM
Summary of the method: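 SOS1-mediated exchange assay: 3 nM biotin-KRAS WT with terbium-streptavidin, started with 3 nM SOS1 and 300 nM BODIPY-GDP, HEPES pH 7.5 with MgCl2. TR-FRET (520/490 nm) read after 60 min; normalized to DMSO and full-inhibition control, IC50 from 4-parameter Hill fit.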

[4] = test system: H1975 (KRAS wild type human lung adenocarcinoma cell line); test: KRAS 3D-Cell Proliferation Assay, H1975 (CellTiter-Glo 3D, 7 days); assay type: cell-based; settings: H1975 3D culture, read-out: Prolif H1975 3D ATP IC50
Summary of the method: (§2)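 Cells were grown as 3D cultures in ultra-low attachment plates in RPMI-1640 with 10% FBS and 2 mM glutamine. Compound dilution series (0.3% DMSO final) were added after overnight culture, and plates were incubated for 7 days at 37 °C. CellTiter-Glo 3D luminescence was normalised to DMSO and 1 uM staurosporine, and IC50 was taken from 4-parameter Hill fits.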

[5] = test system: HPAC (homozygous mutant KRAS G12D human pancreatic cell line); test: KRAS 3D-Cell Proliferation Assay, HPAC (CellTiter-Glo 3D, 7 days); assay type: cell-based; settings: HPAC 3D culture, read-out: Prolif HPAC 3D ATP IC50
Summary of the method: as §2

[6] = target: T1, KRAS WT; test: KRAS WT Biochemical Assay, BODIPY-GDP Exchange TR-FRET (Example 502; 0.06 nM KRAS WT, 15 nM GDP, 300 nM SOS1, 120-minute incubation); settings: read-out: KRas HTRF IC50
Summary of the method: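 IC50 from a 4-parameter Hill fit of percent inhibition, itself the TR-FRET 520/490 nm ratio scaled between DMSO and a fully inhibiting control. Reaction: 300 nM SOS1 and 300 nM BODIPY-GDP added to preformed 0.06 nM KRAS WT/15 nM GDP/Tb-streptavidin complex; 120 min incubation; pH 7.5 HEPES, MgCl2, DTT.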

[7] = test system: PC-9 (KRAS wild type human lung adenocarcinoma cell line); test: KRAS 3D-Cell Proliferation Assay, PC-9 (CellTiter-Glo 3D, 7 days); assay type: cell-based; settings: Homo sapiens, PC-9, 168 h, PC-9 3D culture, read-out: Prolif PC9 3D ATP IC50
Method: as §1

[8] = read-out: KRas(wt) GDP HTRF IC50

Structure (SMILES) | pIC50 ([1]; Homo sapiens, ASPC1, 168 h) | pIC50 [2] | pIC50 ([3]; read-out: KRas HTRF IC50) | pIC50 ([4]; Homo sapiens, NCI-H1975, 168 h) | pIC50 ([5]; Homo sapiens, HPAC, 168 h) | pIC50 [1] | pIC50 [3, 8] | pIC50 [4] | pIC50 [5] | pIC50 [6] | pIC50 [7]
Cc1c(F)c(N)cc(-c2nc3c4c(nc(OC[C@@]56CCCN5C[C@H](F)C6)nc4c2F)N2C[C@H]4CC[C@H](N4)[C@@H]2C(C)O3)c1C(F)(F)F (single isomer, unassigned) [237 (isomer 2)] | 6.70 | 9.82 | 9.46 |  |  |  |  |  |  |  | 
Cc1c(F)c(N)cc(-c2nc3c4c(nc(OC[C@]56CCN(C)C5COC6)nc4c2F)N2C[C@H]4CC[C@H](N4)[C@H]2[C@H](C)O3)c1C(F)(F)F (single isomer, unassigned) [258 (isomer 2)] | 8.16 | 10.15 | 7.96 | 5.81 | 8.57 |  |  |  |  |  | 
Cc1cc(N)c(F)c(-c2nc3c4c(nc(OCC56CCN5CC(F)(F)C6)nc4c2F)N2C[C@H]4CC[C@H](N4)[C@H]2[C@H](C)O3)c1 (single isomer, unassigned) [Compound 23] |  |  |  |  |  | 4.70 | 4.40 and 4.02 |  |  |  | 
Cc1c(F)c(N)cc(-c2nc3c4c(nc(OC[C@]5(CN6CC7(COC7)C6)CC5(F)F)nc4c2F)N2C[C@H]4CC[C@H](N4)[C@H]2[C@H](C(F)(F)F)O3)c1C(F)(F)F (stereo in doubt) [255 a, 5-((5R,5aS,6S,9R)-12-(((R)-1-((2-oxa-6-azaspiro[3.3]heptan-6-yl)methyl)-2,2-difluorocyclopropyl)methoxy)-1-fluoro-5-(trifluoromethyl)-5a,6,7,8,9,10-hexahydro-5H-4-oxa-3,10a,11,13,14-pentaaza[6,9]methanonaphtho[1,8-ab]heptalen-2-yl)-2-fluoro-3-methyl-4-(trifluoromethyl)aniline] | 8.18 | 9.39 | 8.86 |  |  |  |  | 6.92 | 8.78 |  | 
Cc1c(F)c(N)cc(-c2nc3c4c(nc(OC[C@]5(CN6CC7(COC7)C6)CC5(F)F)nc4c2F)N2C[C@H]4CC[C@H](N4)[C@H]2[C@H](C(F)(F)F)O3)c1C(F)(F)F (stereo in doubt) [255 b, 5-((5R,5aS,6S,9R)-12-(((R)-1-((2-oxa-6-azaspiro[3.3]heptan-6-yl)methyl)-2,2-difluorocyclopropyl)methoxy)-1-fluoro-5-(trifluoromethyl)-5a,6,7,8,9,10-hexahydro-5H-4-oxa-3,10a,11,13,14-pentaaza[6,9]methanonaphtho[1,8-ab]heptalen-2-yl)-2-fluoro-3-methyl-4-(trifluoromethyl)aniline] |  | 9.57 | 8.93 |  |  | 8.33 |  | 6.51 | 8.38 |  | 
C=C1CN2CCC[C@@]2(COc2nc3c4c(nc(-c5nc(N)cc(C)c5C(F)(F)F)c(F)c4n2)O[C@@H](C)[C@@H]2[C@@H]4CC[C@H](CN32)N4)C1 [Compound 48, 6-((5S,5aS,6S,9R)-1-fluoro-5-methyl-12-(((S)-2-methylenetetrahydro-1H-pyrrolizin-7a(5H)-yl)methoxy)-5a,6,7,8,9,10-hexahydro-5H-4-oxa-3,10a,11,13,14-pentaaza-6,9-methanonaphtho[1,8-ab]heptalen-2-yl)-4-methyl-5-(trifluoromethyl)pyridin-2-amine] |  | 9.31 |  |  |  |  | 7.98 |  |  | 7.55 | 4.70
Nc1nc2c(-c3nc4c5c(ncnc5c3F)N3C[C@H]5CC[C@H](N5)[C@H]3CO4)ccc(F)c2s1 [Compound 55, 7-fluoro-4-((5aS,6S,9R)-1-fluoro-5a,6,7,8,9,10-hexahydro-5H-4-oxa-3,10a,11,13,14-pentaaza-6,9-methanonaphtho[1,8-ab]heptalen-2-yl)benzo[d]thiazol-2-amine] | 4.70 | 4.65 |  |  |  |  | 3.70 |  |  |  | 
